The text below walks through data of patent US20210113715A1, “TARGETED NANOPARTICLES FOR DIAGNOSING, DETECTING AND TREATING CANCER” (CEDARS-SINAI MEDICAL CENTER, priority 2018, published 2021).

“Also recorded” adds a separate entry of the source.

Data set [1] deals with OATP transporter (U87 cells). Nature of the data set: Inhibition of HMC-FH uptake by pre-incubation with inhibitors. It counts as cell-based. The note with it: fluorescence microscopy and flow cytometry. (In general: A flow cytometer gives signals particle by particle.)
Text: Next, we tested the ability of HMC-FH to target and internalize into various GBM cancer cell lines.
Data set [2] deals with PC3 prostate cancer cells. Nature of the data set: Transwell cell migration, PC3. It counts as cell-based. The note with it: PC3, 24 h at 37° C. The method, then: After incubation, nonmigratory cells and media were washed from transwells, and those cells that migrated to the bottom of the filters were, fixed and stained and imaged using a fluorescence Microscope. […] Quantification of the average number of cells per image that have migrated (FIG. 8C).

The test system of data set [3] is intracranial U87 GBM tumors. Nature of the data set: Survival studies (Kaplan-Meier) of mice with intracranial U87 tumors. It counts as in vivo. To be noted: treated 14 days after tumor implantation, 3 umol drug/kg i.v. twice a week for three weeks, n=5. On the procedure:
A dose of 3 umol drug/kg, 22 mM Fe (FH) was administered i.v via tail vein injection twice a week for […].
(§1) A dose of 3 umol drug/kg, 22 mM Fe (FH) was administered i.v. via tail vein injection twice a week for three weeks.
as §1
HMC-FH(PXL) and HMC-FH(BFA) increase the survival of mice with GBM tumors. In these experiments, we injected mice (n=5) with intracranial U87 GBM tumors with HMC-FH encapsulated with either paclitaxel (PTX) or docetaxel (DXT). As control, we injected either PBS or the corresponding drug along at equal concentrations. In initial studies, treatment started “late”, 14 days after tumor implantation. […] In additional studies, treatment was started earlier, 5 days after injection, to find out if an early treatment would improve survival. Impressive results were obtained by injecting HMC-FH(PXL), 5 days after tumor implantation.
In initial animal studies using BFA and HMC-FH(BFA), we injected mice (n=5) with intracranial U87 GBM tumors with either BFA (dissolved in DMSO) or HMC-FH(BFA) in saline. In these studies, treatment started “late”, 14 days after tumor implantation. […] The ability of BFA to cross the BBB has not been studied or reported, to our knowledge. However, due to its poor solubility, it is advantageous to encapsulate BFA in HMC-FH.

A further data set concerns TMZ-resistant U87R cells. The data set can be described thus: Transwell cell migration, U87R. It counts as cell-based. The method, then:
After incubation, nonmigratory cells and media were washed from transwells, and those cells that migrated to the bottom of the filters were, fixed and stained and imaged using a fluorescence Microscope (Keyence BZ-X7 00). Representative images (5 fields) were taken of treatment (2 uM of each-BFA, HMC-FH and HMC-FH (BFA, DMSO) for quantification.

Data set [4] concerns LNCaP prostate cancer cells. Nature of the data set: Transwell cell migration, LNCaP. In kind it is cell-based. To be noted: 24 h at 37° C.
Data set [5] has as its system intracranial U87MG tumors. To be noted: mouse, in vivo.
Text: Mouse brains were extracted from the mouse skull, and tumors visualized and resected from the healthy brain while recording using SIRIS.
Data set [6] concerns human intracranial U87MG tumors. The data set can be described thus: HMC-FH(PTX) treatment of nude mice with intracranial U87MG tumors. In kind it is in vivo. To be noted: six treatments, 1 mg HMC, 3 mg PTX and 4 mgFe/kg; treatment period 40 days after tumor inoculation. On the procedure: Brain MRI images of treated mice (FIG. 46A). […] Corresponding mice body weight measurements (FIG. 46D).
The HMC-FH(PTX) was next used to treat nude mice with human intracranial U87MG tumors. […] It is not until after the treatment period that tumors start developing in the HMC-FH(PTX) treated mice (FIG. 46B).

For the molecule `O=CC[C@@H](O)[C@H](O)[C@H](O)CO` [2-deoxyglucose], the “effect of pre-incubation on HMC-FH uptake” value in data set [1] was “do not block the internalization”. On the same count and under the same terms, the value for `COC(=O)N[C@H](C(=O)N[C@@H](Cc1ccccc1)[C@@H](O)CN(Cc1ccc(-c2ccccn2)cc1)NC(=O)[C@@H](NC(=O)OC)C(C)(C)C)C(C)(C)C` [Atazanir] was “uptake and cell associated fluorescence was reduced; also recorded: inhibits HMC-FH internalization”. As to `C[C@H]1CCC/C=C/[C@@H]2C[C@H](O)C[C@H]2[C@H](O)/C=C/C(=O)O1` [BFA, Brefeldin A], the cell migration result was “decreased migration” in data set [2]; “decreased migration” in the data set on TMZ-resistant U87R cells (U87R, 2 uM, 24 h); “decrease cell migration” in the data set with TMZ-resistant U87R cells (printed as U87 cells). For the same molecule, the “survival, BFA formulations” value in data set [3] is “significantly longer than in the control mice; also recorded: enhanced mice survival”. On to `CC(=O)O[C@@]12CO[C@@H]1C[C@H](O)[C@@]1(C)C(=O)[C@H](O)C3=C(C)[C@@H](OC(=O)[C@H](O)[C@@H](NC(=O)OC(C)(C)C)c4ccccc4)C[C@@](O)([C@@H](OC(=O)c4ccccc4)[C@H]21)C3(C)C` [DXT, docetaxel], for which the cell migration entry in data set [2] and in data set [4] was “decreased migration” in each case.

Regarding `CC1(C)C(/C=C/C=C/C=C/C=C2\N(CCCCS(=O)(=O)[O-])c3ccc4ccccc4c3C2(C)C)=[N+](CCCCS(=O)(=O)[O-])c2ccc3ccccc3c21.[Na+]` [ICG], in data set [5], the “fluorescent labeling / localization to tumor” value is listed as “does not show tumor localization”. Regarding `CC(=O)O[C@H]1C(=O)[C@@]2(C)[C@H]([C@H](OC(=O)c3ccccc3)[C@]3(O)C[C@H](OC(=O)[C@H](O)[C@@H](NC(=O)c4ccccc4)c4ccccc4)C(C)=C1C3(C)C)[C@]1(OC(C)=O)CO[C@@H]1C[C@@H]2O` [PTX, paclitaxel], in data set [6], the “tumor growth / tumor detection by MRI or histopathology” value was “developed visible tumor”.
